Experimental data from PMC5862576, “Mitochondrial fission as a driver of stemness in tumor cells: mDIVI1 inhibits mitochondrial function, cell migration and cancer stem cell (CSC) signalling” (Oncotarget, 2018).

How the values were obtained:
MCF7 cells [1] = experiment: Extracellular flux analysis (ECAR and OCR, Seahorse XF96); assay type: cell-based, Human; conditions: 48 hours
A549 lung cancer = experiment: Tumorsphere formation assay, A549; assay type: cell-based; conditions: five days
Description: (§1) A single cell suspension was prepared using enzymatic (1× Trypsin-EDTA, T3924, Sigma Aldrich), and manual disaggregation (25 gauge needle). Cells were plated at a density of 5000 cells/well in tumorsphere media (DMEM-F12/B27/EGF (20ng/ml)/Pen-Strep) in non-adherent conditions, in 6-well plates coated with (2-hydroxyethylmethacrylate) (poly-HEMA, P3932, Sigma) in the presence of mDIVI1 or vehicle. After 5 days of culture in a humidified incubator at 37° C, tumorspheres bigger than 50 μm were counted using an eye piece graticule.

MCF7 cells [2] = experiment: Tumorsphere formation assay, MCF7; assay type: cell-based, Human; conditions: five days, vs vehicle
Description: as §1

MCF7 cells [3] = experiment: PrestoBlue viability assay; assay type: cell-based, Human
Description: Cell viability was measured using the resazurin-based PrestoBlue reagent (A-13261, ThermoFisher Scientific). Briefly, 5 × 10^3 MCF7 cells were seeded into 96-well black plates. When cells were attached mDIVI1 or vehicle were added to the cells. After 2 or 5 days, PrestoBlue reagent was added to the cells and incubated for 2 hours. Plates were finally read using a FluoStar Omega plate reader (BMG Labtech) at an excitation wavelength of 544 and an emission wavelength of 590 nm. Background measurements were subtracted from all values.

Notch signalling = experiment: Luciferase reporter assay MCF7-GFP-Rbp/Jk(luc); assay type: cell-based, Human; conditions: 50 µM, 2 and 5 days
Description: The Cignal Lenti reporter assay (luc) was used to monitor the activity of several signalling pathways in MCF7-GFP cells as explained previously. Luciferase Assay System (E1501, Promega) was performed according to manufacturer’s instructions. 1 × 10^4 MCF7 were seeded in black-walled 96 well plates. When cells were attached, drug treatments were added for 18, 48 hours and 5 days. After treatment, Luciferase Assay was performed according to manufacturer’s instructions and light signal was acquired in the Xenogen VivoVision IVIS Lumina. Results were normalized by SRB staining of cells grown in 96-well plates in parallel.
SRB (S9012, Sigma) measures total biomass by staining cellular proteins. After treatment, cells were fixed in 10% tricloroacetic acid (T9159, Sigma) for 1 hour at 4° C, stained with SRB (S9012, Sigma) for 15 minutes, and washed 3 times with 1% acetic acid (27225, Sigma). The incorporated die was solubilized with 10 mM Tris Base, pH 8.8 (T1503, Sigma). Absorbance was spectrophotometrically measured at 562 nm in a FluoStar Omega plate reader (BMG Labtech). Background measurements were subtracted from all values.

MCF7 cells [4] = experiment: DAPI immunofluorescence staining (binucleated cells); assay type: cell-based, Human; conditions: 50 µM; data not shown
A375 melanoma = experiment: Tumorsphere formation assay, A375; assay type: cell-based; conditions: five days
Description: as §1

E-cadherin = experiment: Western blotting; assay type: cell-based, Human; conditions: MCF7 cells
Description: At the end of the treatment, cells in suspension were spun down and lysed and attached cells were directly lysed in RIPA lysis buffer (R0278, Sigma) containing proteinase inhibitors (05 892 970 001, Roche) and kept at 4° C for 20 minutes with rotation. Lysates were cleared by centrifugation for 10 minutes at 10,000 xg and supernatants were collected. […] Bound antibodies were detected using a horseradish peroxidase-conjugated secondary antibody (ab6789 and ab6721, Abcam) and signal was obtained using Supersignal West Pico chemiluminiscent substrate (34087, ThermoScientific). Pictures were taken in a ChemiDoc XRS with Image Lab Software (BioRad).

MCF7 cells [5] = experiment: Mitochondrial superoxide (MitoSOX, flow cytometry); assay type: cell-based, Human; conditions: both concentrations; 24 hour, 2 and 5 days; vs vehicle
Description: For both assays, 2 × 10^5 MCF7 cells were seeded in 35 mm plates. When cells were attached, either vehicle or mDIVI1 were added to the cells for 24, 48 hours or 5 days in triplicate. Reactive oxygen species (ROS) production was measured using CM-H2DCFDA (C6827, Invitrogen). Briefly, cells were incubated for 20 minutes at 37° C with 1 µM CM-H2DCFDA diluted in PBS and then placed in complete media for 20 minutes at 37° C in the dark, to render the dye fluorescent, according to the manufacturer. Mitochondrial superoxide was measured using MitoSOX Red Mitochondrial Superoxide Indicator (M36008, ThermoFisher Scientific). Briefly, cells were incubated for 10 minutes at 37° C in the dark with 5 µM MitoSOX diluted in PBS, according to the manufacturer. ROS signal and MitoSOX signal was quantified as mean fluorescent intensity of the viable cell population in a Fortessa flow cytometer (BD Bioscience). Results were analysed using FlowJo software.

SMILES: COc1cc(-n2c(=S)[nH]c3ccccc3c2=O)c(Cl)cc1Cl [mDIVI1, 3-(2,4-Dichloro-5-methoxyphenyl) 2,3-dihydro 2-thioxo-4(1H) quinazolinone]
- basal glycolysis (ECAR) (MCF7 cells [1]): did not have a significant effect
- oxygen consumption linked to ATP production (MCF7 cells [1]): significantly reduced
- oxygen consumption linked to basal respiration (MCF7 cells [1]): significantly reduced
- spare respiratory capacity (MCF7 cells [1]; all mDIVI1 concentrations): slightly increased
- OCR/ECAR ratio (MCF7 cells [1]; vs vehicle): decreased dose-dependently
- oxygen consumption linked to maximal respiration (MCF7 cells [1]; to a lesser extent, at higher concentrations): significantly reduced
- glycolytic capacity (ECAR) (MCF7 cells [1]; ≥10 µM): reduced
- glycolytic reserve (ECAR) (MCF7 cells [1]; ≥10 µM): reduced
- decrease of A549 tumorsphere forming capacity (A549 lung cancer; 10 µM): > 15%
- decrease of A549 tumorsphere forming capacity (A549 lung cancer; 50 µM): > 80%
- decrease of MCF7 tumorsphere number (MCF7 cells [2]; 10 µM): 50%
- decrease of MCF7 tumorsphere number (MCF7 cells [2]; 50 µM): 80%
- decrease of MCF7 tumorsphere number (MCF7 cells [2]; 100 µM): 95%
- effect on MCF7 cell viability (MCF7 cells [3]; 10 µM, 48 hours): did not decrease viability
- reduction of MCF7 cell viability (MCF7 cells [3]; 10 µM, five days): 20%
- reduction of MCF7 cell viability (MCF7 cells [3]; 50 µM, 48 hours): 20%
- reduction of MCF7 cell viability (MCF7 cells [3]; 50 µM, five days): over 65%
- reduction of MCF7 cell viability (MCF7 cells [3]; 100 µM, 48 hours): 20%
- reduction of MCF7 cell viability (MCF7 cells [3]; 100 µM, five days): 85%
- Notch/Rbp pathway luciferase activity (Notch signalling): strikingly caused the inhibition
- binucleated cells (failure of cytokinesis) (MCF7 cells [4]): increase in binucleated cells
- decrease of A375 tumorsphere forming capacity (A375 melanoma; 10 µM): over 35%
- decrease of A375 tumorsphere forming capacity (A375 melanoma; 50 µM): over 90%
- E-cadherin expression (immunoblot) (E-cadherin): reduction in the expression
- mitochondrial superoxide production (MitoSOX) (MCF7 cells [5]): significantly increased
